In brackets after ≈: the same amount, converted by molar mass.
Tests used:
Assay in all cases: MIC, broth microdilution (NCCLS)
Format in all cases: cell-based
[1] = test system: H. influenzae<> GC6896 (ATCC Control); details: Haemophilus influenzae, Mueller-Hinton II broth, 18-22 hours at 35° C.
Procedure: (§1) Methods for in Vitro Antibacterial Evaluation
(§2) The Minimum Inhibitory Concentration (MIC)
(§3) Antimicrobial susceptibility testing. The in vitro activities of the antibiotics are determined by the broth microdilution method as recommended by the National Committee for Clinical Laboratory Standards (NCCLS) (1). Mueller-Hinton II broth (MHBII)(BBL Cockeysville, Md.) is the medium employed in the testing procedures. Microtiter plates containing serial dilutions of each antimicrobial agent are inoculated with each organism to yield the appropriate density (10^5 CFU/ml) in a 100 μl final volume. The plates are incubated for 18-22 hours at 35° C. in ambient air.
(§4) 1. NCCLS. 2000. Methods for Dilution Antimicrobial Susceptibility Tests for Bacteria That Grow Aerobically; Approved Standards: M7-A5, vol. 20. National Committe for Clinical Laboratory Standards, Wayne, Pa.

[2] = test system: S. pneumoniae* GC4465 (Clinical); details: Streptococcus pneumoniae, Mueller-Hinton II broth, 18-22 hours at 35° C.
Procedure: as §1, §2, §3, §4

[3] = test system: S. aureus GC4536 (Smith MP -In Vivo); details: Staphylococcus aureus, Mueller-Hinton II broth, 18-22 hours at 35° C.
Procedure: as §1, §2, §3, §4

[4] = test system: E. coli GC4559 (parent GC4560); details: Escherichia coli, Mueller-Hinton II broth, 18-22 hours at 35° C.
Procedure: as §1, §2, §3, §4

[5] = test system: C. albicans GC3066 ATCC (Control); details: Candida albicans, Mueller-Hinton II broth, 18-22 hours at 35° C.
Procedure: as §1, §2, §3, §4

[6] = test system: M. catarrhalis* GC6907 (Clinical); details: Moraxella catarrhalis, Mueller-Hinton II broth, 18-22 hours at 35° C.
Procedure: as §1, §2, §3, §4

[7] = test system: S. pneumoniae* GC1894 (Clinical); details: Streptococcus pneumoniae, Mueller-Hinton II broth, 18-22 hours at 35° C.
Procedure: as §1, §2, §3, §4

[8] = test system: S. aureus GC1079 (tet(K)); details: Staphylococcus aureus, Mueller-Hinton II broth, 18-22 hours at 35° C.
Procedure: as §1, §2, §3, §4

[9] = test system: S. pyogenes* GC4563 (Clinical); details: Streptococcus pyogenes, Mueller-Hinton II broth, 18-22 hours at 35° C.
Procedure: as §1, §2, §3, §4

[10] = test system: E. faecalis GC2242 (Van-resistant); details: Enterococcus faecalis, Mueller-Hinton II broth, 18-22 hours at 35° C.
Procedure: as §1, §2, §3, §4

[11] = test system: S. aureus GC1131 (Clinical); details: Staphylococcus aureus, Mueller-Hinton II broth, 18-22 hours at 35° C.
Procedure: as §1, §2, §3, §4

E. coli GC1073 (tet(B)) = details: Escherichia coli
Procedure: as §1, §2, §3, §4

[12] = test system: E. coli GC4560 (IMP mutant); details: Escherichia coli
Procedure: as §1, §2, §3, §4

[13] = test system: S. aureus GC2216 (ATCC Control); details: Staphylococcus aureus, Mueller-Hinton II broth, 18-22 hours at 35° C.
Procedure: as §1, §2, §3, §4

[14] = test system: S. aureus GC6466 (tet(M)); details: Staphylococcus aureus, Mueller-Hinton II broth, 18-22 hours at 35° C.
Procedure: as §1, §2, §3, §4

E. coli GC2270 (tet(M)) = details: Escherichia coli
Procedure: as §1, §2, §3, §4

[15] = test system: E. coli GC2203 (ATCC Control); details: Escherichia coli, Mueller-Hinton II broth, 18-22 hours at 35° C.
Procedure: as §1, §2, §3, §4

[16] = test system: E. faecalis GC4555 (ATCC Control); details: Enterococcus faecalis, Mueller-Hinton II broth, 18-22 hours at 35° C.
Procedure: as §1, §2, §3, §4

Structure (SMILES)	MIC [1] [µg/mL]	MIC [2] [µg/mL]	MIC [3] [µg/mL]	MIC [4] [µg/mL]	MIC [5] [µg/mL]	MIC [6] [µg/mL]	MIC [7] [µg/mL]	MIC [8] [µg/mL]	MIC [9] [µg/mL]	MIC [10] [µg/mL]	MIC [11] [µg/mL]	MIC (E. coli GC1073 (tet(B))) [µg/mL]	MIC [12] [µg/mL]	MIC [13] [µg/mL]	MIC [14] [µg/mL]	MIC (E. coli GC2270 (tet(M))) [µg/mL]	MIC [15] [µg/mL]	MIC [16] [µg/mL]
CN(C)c1cc2nc(-c3cc4ccccc4o3)oc2c2c1C[C@H]1C[C@H]3[C@H](N(C)C)C(O)=C(C(N)=O)C(=O)[C@@]3(O)C(O)=C1C2=O [Example 18, (6aR,7aS,8S,11aS)-2-(1-benzofuran-2-yl)-5,8-bis(dimethylamino)-9,11a,12-trihydroxy-11,13-dioxo-6,6a,7,7a,8,11,11a,13-octahydrotetraceno[2,1-d][1,3]oxazole-10-carboxamide]	> 64	16 (≈ 26.7 µM)	4 (≈ 6.68 µM)	> 64	> 64	8 (≈ 13.4 µM)	16 (≈ 26.7 µM)	4 (≈ 6.68 µM)	16 (≈ 26.7 µM)	4 (≈ 6.68 µM)	4 (≈ 6.68 µM)	> 64	4 (≈ 6.68 µM)	4 (≈ 6.68 µM)	4 (≈ 6.68 µM)	> 64	> 64	4 (≈ 6.68 µM)
COc1cccc(/C=C/c2nc3cc(N(C)C)c4c(c3o2)C(=O)C2=C(O)[C@]3(O)C(=O)C(C(N)=O)=C(O)[C@@H](N(C)C)[C@@H]3C[C@@H]2C4)c1 [Example 27, (6aR,7aS,8S,11aS)-5,8-bis(dimethylamino)-9,11a,12-trihydroxy-2-[(E)-2-(3-methoxyphenyl)ethenyl]-11,13-dioxo-6,6a,7,7a,8,11,11a,13-octahydrotetraceno[2,1-d][1,3]oxazole-10-carboxamide]	> 64	64 (≈ 104 µM)	16 (≈ 26 µM)	> 64	> 64	> 64	64 (≈ 104 µM)	8 (≈ 13 µM)	64 (≈ 104 µM)	8 (≈ 13 µM)	8 (≈ 13 µM)	> 64	32 (≈ 52.1 µM)	8 (≈ 13 µM)	16 (≈ 26 µM)	> 64	> 64	16 (≈ 26 µM)
COc1ccc(/C=C/c2nc3cc(N(C)C)c4c(c3o2)C(=O)C2=C(O)[C@]3(O)C(=O)C(C(N)=O)=C(O)[C@@H](N(C)C)[C@@H]3C[C@@H]2C4)cc1 [Example 26, (6aR,7aS,8S,11aS)-5,8-bis(dimethylamino)-9,11a,12-trihydroxy-2-[(E)-2-(4-methoxyphenyl)ethenyl]-11,13-dioxo-6,6a,7,7a,8,11,11a,13-octahydrotetraceno[2,1-d][1,3]oxazole-10-carboxamide]	> 64	> 64	32 (≈ 52.1 µM)	> 64	> 64	> 64	> 64	32 (≈ 52.1 µM)	64 (≈ 104 µM)	16 (≈ 26 µM)	16 (≈ 26 µM)	> 64	32 (≈ 52.1 µM)	16 (≈ 26 µM)	16 (≈ 26 µM)	> 64	> 64	32 (≈ 52.1 µM)
CN(C)c1cc2nc(-c3cccnc3)oc2c2c1C[C@H]1C[C@H]3[C@H](N(C)C)C(O)=C(C(N)=O)C(=O)[C@@]3(O)C(O)=C1C2=O [Example 34, (6aR,7aS,8S,11aS)-5,8-bis(dimethylamino)-9,11a,12-trihydroxy-11,13-dioxo-2-pyridin-3-yl-6,6a,7,7a,8,11,11a,13-octahydrotetraceno[2,1-d][1,3]oxazole-10-carboxamide]	> 64	32 (≈ 57.2 µM)	64 (≈ 114 µM)	> 64	> 64	16 (≈ 28.6 µM)	64 (≈ 114 µM)	32 (≈ 57.2 µM)	32 (≈ 57.2 µM)	32 (≈ 57.2 µM)	32 (≈ 57.2 µM)	> 64	32 (≈ 57.2 µM)	32 (≈ 57.2 µM)	64 (≈ 114 µM)	> 64	> 64	32 (≈ 57.2 µM)
CN(C)c1cc2nc(/C=C/c3ccccc3F)oc2c2c1C[C@H]1C[C@H]3[C@H](N(C)C)C(O)=C(C(N)=O)C(=O)[C@@]3(O)C(O)=C1C2=O [Example 30, (6aR,7aS,8S,11aS)-5,8-bis(dimethylamino)-2-[(E)-2-(2-fluorophenyl)ethenyl]-9,11a,12-trihydroxy-11,13-dioxo-6,6a,7,7a,8,11,11a,13-octahydrotetraceno[2,1-d][1,3]oxazole-10-carboxamide]	> 64	16 (≈ 26.6 µM)	8 (≈ 13.3 µM)	> 64	> 64	32 (≈ 53.1 µM)	16 (≈ 26.6 µM)	8 (≈ 13.3 µM)	16 (≈ 26.6 µM)	4 (≈ 6.64 µM)	4 (≈ 6.64 µM)	> 64	8 (≈ 13.3 µM)	4 (≈ 6.64 µM)	8 (≈ 13.3 µM)	> 64	> 64	8 (≈ 13.3 µM)
CC(C)=Cc1nc2ccc3cc4c(c(O)c3c2o1)C(=O)[C@]1(O)C(=O)C(C(N)=O)=C(O)[C@@H](N(C)C)[C@@H]1C4 [Example 2, (7aS,8S,11aS)-8-(dimethylamino)-9,11a,13-trihydroxy-2-(2-methyl-1-propenyl)-11,12-dioxo-7,7a,8,11,11a,12-hexahydronaphthaceno[2,1-d][1,3]oxazole-10-carboxamide]	–	8 (≈ 16.3 µM)	8 (≈ 16.3 µM)	> 64	> 64	–	–	8 (≈ 16.3 µM)	8 (≈ 16.3 µM)	8 (≈ 16.3 µM)	8 (≈ 16.3 µM)	> 64	8 (≈ 16.3 µM)	8 (≈ 16.3 µM)	8 (≈ 16.3 µM)	> 64	> 64	8 (≈ 16.3 µM)
CN(C)c1ccc(-c2nc3ccc4cc5c(c(O)c4c3o2)C(=O)[C@]2(O)C(=O)C(C(N)=O)=C(O)[C@@H](N(C)C)[C@@H]2C5)cc1 [Example 3, (7aS,8S,11aS)-8-(dimethylamino)-2-[4-(dimethylamino)phenyl]-9,11a,13-trihydroxy-11,12-dioxo-7,7a,8,11,11a,12-hexahydronaphthaceno[2,1-d][1,3]oxazole-10-carboxamide]	–	2 (≈ 3.59 µM)	2 (≈ 3.59 µM)	> 64	> 64	–	–	1 (≈ 1.8 µM)	8 (≈ 14.4 µM)	2 (≈ 3.59 µM)	2 (≈ 3.59 µM)	> 64	16 (≈ 28.7 µM)	2 (≈ 3.59 µM)	2 (≈ 3.59 µM)	> 64	> 64	2 (≈ 3.59 µM)
